# Measured values: patent publication US12060347B2 (BRISTOL-MYERS SQUIBB COMPANY, priority 2016, dated 2024)
# Structures can show the parent of a compound that is named as a salt.
# Target: T1, human PAR4 (Homo sapiens, UniProt Q96RI0)
# T1 construct: expressed in transfected cells; host or cells: HEK293 PAR4 Clone 1.2A (BMS Arctic ID 383940)
# T1 sequence (Q96RI0 18-385): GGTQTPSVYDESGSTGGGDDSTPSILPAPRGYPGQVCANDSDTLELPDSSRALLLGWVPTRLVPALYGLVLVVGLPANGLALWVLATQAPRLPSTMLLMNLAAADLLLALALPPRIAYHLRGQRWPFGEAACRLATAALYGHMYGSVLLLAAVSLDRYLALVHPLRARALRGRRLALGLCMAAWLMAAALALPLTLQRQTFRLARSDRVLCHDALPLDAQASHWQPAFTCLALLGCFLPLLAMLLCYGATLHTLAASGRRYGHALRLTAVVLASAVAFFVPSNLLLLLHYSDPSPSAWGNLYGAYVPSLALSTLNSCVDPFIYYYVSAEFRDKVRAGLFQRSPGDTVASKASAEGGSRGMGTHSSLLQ
# Assay: PAR4 FLIPR assay: antagonism of agonist-peptide-induced calcium mobilization in PAR4-expressing HEK293 cells
# Assay type: cell-based
# Details: H-Ala-Phe(4-F)-[…]NH2-induced intracellular calcium mobilization, 11-point curves
row,Compound,IC50
1,"COc1cnc2c(-c3nc4cc(F)c(O[C@@H](C)[C@@H](C)OC(=O)Nc5cnc(C(C)(C)O)nc5)cc4s3)cc(C)cc2n1 [Example 501, (2R,3S)-3-((5-fluoro-2-(2-methoxy-7-methylquinoxalin-5-yl)benzo[d]thiazol-6-yl)oxy)butan-2-yl (2-(2-hydroxypropan-2-yl)pyrimidin-5-yl)carbamate]",4 nM
2,"COc1cnc2c(-c3nc4c(Cl)c(F)c(OCCCC(=O)Nc5cccnc5)cc4s3)cc(C)cc2n1 [Example 518, 4-((4-chloro-5-fluoro-2-(2-methoxy-7-methylquinoxalin-5-yl)benzo[d]thiazol-6-yl)oxy)-N-(pyridin-3-yl)butanamide]",13 nM
3,"COc1cnc2c(-c3nc4c(Cl)c(F)c(OCCNC(=O)Nc5cccnc5)cc4s3)cc(C)cc2n1 [Example 519, 1-(2-((4-chloro-5-fluoro-2-(2-methoxy-7-methylquinoxalin-5-yl)benzo[d]thiazol-6-yl)oxy)ethyl)-3-(pyridin-3-yl)urea]",16 nM
4,"COc1cnc2c(-c3nc4c(Cl)c(F)c(OCCN(C)C(=O)Nc5cnc(C)nc5)cc4s3)cc(C)cc2n1 [Example 520, 1-(2-((4-chloro-5-fluoro-2-(2-methoxy-7-methylquinoxalin-5-yl)benzo[d]thiazol-6-yl)oxy)ethyl)-1-methyl-3-(2-methylpyrimidin-5-yl)urea]",77 nM
5,"COc1cnc2c(-c3nc4cc(F)c(O[C@@H](C)[C@@H](C)OC(=O)Nc5ccc(CN6CCOCC6)nc5)cc4s3)cc(C)cc2n1 [Example 521, (2R,3S)-3-((5-fluoro-2-(2-methoxy-7-methylquinoxalin-5-yl)benzo[d]thiazol-6-yl)oxy) butan-2-yl (6-(morpholinomethyl)pyridin-3-yl)carbamate]",24 nM
6,"Cc1cc(-c2nc3cc(F)c(O[C@@H](C)[C@@H](C)OC(=O)Nc4cnc(C)nc4)cc3s2)c2ncc(N(C)C)nc2c1 [Example 522, (2R,3S)-3-((2-(2-(dimethylamino)-7-methylquinoxalin-5-yl)-5-fluorobenzo[d]thiazol-6-yl)oxy)butan-2-yl (2-methylpyrimidin-5-yl)carbamate]",20 nM
7,"COc1cnc2c(-c3nc4cc(F)c(O[C@@H](C)[C@@H](C)OC(=O)Nc5ccc(C(=O)O)nc5)cc4s3)cc(C)cc2n1 [Example 523, 5-(((((2R,3S)-3-((5-fluoro-2-(2-methoxy-7-methylquinoxalin-5-yl)benzo[d]thiazol-6-yl)oxy)butan-2-yl)oxy)carbonyl)amino)picolinic acid, TFA]",2.6 nM
8,"COc1cnc2c(-c3nc4cc(F)c(O[C@@H](C)[C@@H](C)OC(N)=O)cc4s3)cc(C)cc2n1 [Example 524, (2R,3S)-3-((5-fluoro-2-(2-methoxy-7-methylquinoxalin-5-yl)benzo[d]thiazol-6-yl)oxy) butan-2-yl carbamate]",84 nM
9,"[2H]C([2H])(O)c1ncc(NC(=O)O[C@H](C)[C@H](C)Oc2cc3sc(-c4cc(C)cc5nc(OC)cnc45)nc3cc2F)cn1 [Example 528, (2R,3S)-3-((5-fluoro-2-(2-methoxy-7-methylquinoxalin-5-yl)benzo[d]thiazol-6-yl)oxy)butan-2-yl (2-(hydroxymethyl)pyrimidin-5-yl)carbamate]",5 nM
10,"CCOc1cnc2c(-c3nc4cc(F)c(O[C@@H](C)[C@@H](C)OC(=O)Nc5cnc([C@H](C)O)nc5)cc4s3)cc(C)cc2n1 [Example 535, (2R,3S)-3-((2-(2-ethoxy-7-methylquinoxalin-5-yl)-5-fluorobenzo[d]thiazol-6-yl)oxy)butan-2-yl (2-((S)-1-hydroxyethyl)pyrimidin-5-yl)carbamate]",5.2 nM
11,"CCOc1cnc2c(-c3nc4cc(F)c(O[C@@H](C)[C@@H](C)OC(=O)Nc5cnc([C@@H](C)O)nc5)cc4s3)cc(C)cc2n1 [Example 536, (2R,3S)-3-((2-(2-ethoxy-7-methylquinoxalin-5-yl)-5-fluorobenzo[d]thiazol-6-yl)oxy) butan-2-yl (2-((R)-1-hydroxyethyl)pyrimidin-5-yl)carbamate]",4.9 nM

# Further lines, results first:
row,IC50,Compound
1,1.7 nM,"COc1cnc2c(-c3nc4cc(F)c(O[C@@H](C)[C@@H](C)OC(=O)Nc5cnc(CO)nc5)cc4s3)cc(C)cc2n1 [Example 502, (2R,3S)-3-((5-fluoro-2-(2-methoxy-7-methylquinoxalin-5-yl)benzo[d]thiazol-6-yl)oxy)butan-2-yl (2-(hydroxymethyl)pyrimidin-5-yl)carbamate]"
2,1.2 nM,"COc1cnc2c(-c3nc4cc(F)c(O[C@@H](C)[C@@H](C)OC(=O)Nc5cnc(OCCO)nc5)cc4s3)cc(Cl)cc2c1 [Example 512, (2R,3S)-3-((2-(6-chloro-3-methoxyquinolin-8-yl)-5-fluorobenzo[d]thiazol-6-yl)oxy)butan-2-yl (2-(2-hydroxyethoxy)pyrimidin-5-yl)carbamate]"
3,1.1 nM,"CCOc1cnc2c(-c3nc4cc(F)c(O[C@@H](C)[C@@H](C)OC(=O)Nc5cnc(OCCO)nc5)cc4s3)cc(Cl)cc2c1 [Example 513, (2R,3S)-3-((2-(6-chloro-3-ethoxyquinolin-8-yl)-5-fluorobenzo[d]thiazol-6-yl)oxy)butan-2-yl (2-(2-hydroxyethoxy)pyrimidin-5-yl)carbamate]"
4,1.9 nM,"COc1cnc2c(-c3nc4cc(F)c(O[C@@H](C)[C@@H](C)OC(=O)Nc5cnc(OCCO)nc5)cc4s3)cc(C)cc2c1 [Example 514, (2R,3S)-3-((5-fluoro-2-(3-methoxy-6-methylquinolin-8-yl)benzo[d]thiazol-6-yl)oxy)butan-2-yl (2-(2-hydroxyethoxy)pyrimidin-5-yl)carbamate]"
5,2.6 nM,"C[C@H](Oc1cc2sc(-c3cc(Cl)cc4cc(OC(F)F)cnc34)nc2cc1F)[C@@H](C)OC(=O)Nc1cnc(OCCO)nc1 [Example 515, (2R,3S)-3-((2-(6-chloro-3-(difluoromethoxy)quinolin-8-yl)-5-fluorobenzo[d]thiazol-6-yl)oxy)butan-2-yl (2-(2-hydroxyethoxy)pyrimidin-5-yl)carbamate]"
6,1.1 nM,"CC[C@H](COc1cc2sc(-c3cc(C)cc4nc(OC)cnc34)nc2cc1F)OC(=O)Nc1cccnc1 [Example 517, (R)-1-((5-fluoro-2-(2-methoxy-7-methylquinoxalin-5-yl)benzo[d]thiazol-6-yl)oxy)butan-2-yl pyridin-3-ylcarbamate]"
7,2 nM,"CCOc1cnc2c(-c3nc4cc(F)c(O[C@@H](C)[C@@H](C)OC(=O)Nc5ccc(CCO)nc5)cc4s3)cc(C)cc2n1 [Example 526, (2R,3S)-3-((2-(2-ethoxy-7-methylquinoxalin-5-yl)-5-fluorobenzo[d]thiazol-6-yl)oxy)butan-2-yl (6-(2-hydroxyethyl)pyridin-3-yl)carbamate]"
8,1.4 nM,"CCOc1cnc2c(-c3nc4cc(F)c(O[C@@H](C)[C@@H](C)OC(=O)Nc5ccc(C(=O)NCC(C)(C)O)nc5)cc4s3)cc(C)cc2n1 [Example 527, (2R,3S)-3-((2-(2-ethoxy-7-methylquinoxalin-5-yl)-5-fluorobenzo[d]thiazol-6-yl)oxy)butan-2-yl (6-((2-hydroxy-2-methylpropyl)carbamoyl)pyridin-3-yl)carbamate]"
9,0.9 nM,"CCOc1cnc2c(-c3nc4cc(F)c(O[C@@H](C)[C@@H](C)OC(=O)Nc5cnc(CO)nc5)cc4s3)cc(C)cc2n1 [Example 529, (2R,3S)-3-((2-(2-ethoxy-7-methylquinoxalin-5-yl)-5-fluorobenzo[d]thiazol-6-yl)oxy)butan-2-yl (2-(hydroxymethyl)pyrimidin-5-yl)carbamate]"
10,1.8 nM,"COc1cnc2c(-c3nc4cc(F)c(OC[C@@H](C)OC(=O)Nc5ccc(C(=O)NCC(C)(C)OP(=O)(O)O)nc5)cc4s3)cc(C)cc2n1 [Example 530, (R)-1-((5-fluoro-2-(2-methoxy-7-methylquinoxalin-5-yl)benzo[d]thiazol-6-yl)oxy) propan-2-yl (6-((2-methyl-2-(phosphonooxy)propyl)carbamoyl)pyridin-3-yl)carbamate, TFA]"
11,0.7 nM,"CCOc1cnc2c(-c3nc4cc(F)c(O[C@@H](C)[C@@H](C)OC(=O)Nc5ccc(C(=O)NC[C@H](C)O)nc5)cc4s3)cc(C)cc2n1 [Example 531, (2R,3S)-3-((2-(2-ethoxy-7-methylquinoxalin-5-yl)-5-fluorobenzo[d]thiazol-6-yl)oxy)butan-2-yl (6-(((S)-2-hydroxypropyl)carbamoyl)pyridin-3-yl)carbamate, TFA]"
12,1.7 nM,"CCOc1cnc2c(-c3nc4cc(F)c(O[C@@H](C)[C@@H](C)OC(=O)Nc5cnc(COP(=O)(O)O)nc5)cc4s3)cc(C)cc2n1 [Example 532, (2R,3S)-3-((2-(2-ethoxy-7-methylquinoxalin-5-yl)-5-fluorobenzo[d]thiazol-6-yl)oxy)butan-2-yl (2-((phosphonooxy)methyl)pyrimidin-5-yl)carbamate]"
13,0.7 nM,"COc1cnc2c(-c3nc4cc(F)c(O[C@@H](C)[C@@H](C)OC(=O)Nc5cncc(O)c5)cc4s3)cc(C)cc2n1 [Example 533, (2R,3S)-3-((5-fluoro-2-(2-methoxy-7-methylquinoxalin-5-yl)benzo[d]thiazol-6-yl)oxy)butan-2-yl (5-hydroxypyridin-3-yl)carbamate]"
14,0.9 nM,"COc1cnc2c(-c3nc4cc(F)c(O[C@@H](C)[C@@H](C)OC(=O)Nc5cncc(OCCO)c5)cc4s3)cc(C)cc2n1 [Example 534, (2R,3S)-3-((5-fluoro-2-(2-methoxy-7-methylquinoxalin-5-yl)benzo[d]thiazol-6-yl)oxy) butan-2-yl (5-(2-hydroxyethoxy)pyridin-3-yl)carbamate]"
